The text below walks through data of ChEMBL document CHEMBL5518189, “Design, synthesis and biological evaluation of 1,2,3-triazole benzothiazole derivatives as tubulin polymerization inhibitors with potent anti-esophageal cancer activities” (Eur J Med Chem, 2024).

The test system of experiment [1] is ECa-109 cell line. Kind of experiment: Induction of apoptosis in human EC109 cells assessed as effect on Bcl-xl level at 40 to 60 nM by flow cytometry analysis. Format: functional, cell-based. The note with it: dose 40-60 nM. For orientation: In flow cytometry, cells or beads pass a laser one at a time.
The test system of another experiment is HCT-116. The experiment is described as follows: Antiproliferative activity against human HCT-116 cells assessed as inhibition of cell growth measured after 48 hrs by CCK8 method. Format: functional, cell-based. As to conditions: HCT-116, 48 h. Background: Tetrazolium assays rely on reduction of a dye to a coloured formazan, in cell work by metabolically active cells.

Experiment [2] addresses T1, Tubulin (Homo sapiens) (UniProt P68371+Q9H4B7+P0DPH7+P68366+Q13509+Q71U36+P04350+Q3ZCM7+P07437+P68363+Q9BQE3+Q6PEY2+Q13885+Q9BVA1+Q9BUF5). The experiment is described as follows: Inhibition of tubulin polymerization (unknown origin) at 0.3 to 3 uM measured upto 4500 secs by fluorescence based analysis. The note with it: dose 0.3-3 µM, time <= 4500.0 sec. The experiment is classed as protein-complex assay.

Experiment [3] relates to KYSE-30. Kind of experiment: Induction of apoptosis in human KYSE-30 cells assessed as decrease in pro-caspase 3 level at 40 to 100 nM measured after 48 hrs by Western blot analysis. The experiment is classed as functional, cell-based. As to conditions: dose 40-100 nM.
The subject of experiment [4] is ECa-109 cell line. Kind of experiment: Antiproliferative activity against human EC109 cells assessed as reduction in cell viability at 70 nM measured after 48 hrs by CCK-8 method relative to control. Format: functional.
For experiment [5], the system named is ECa-109 cell line. The experiment is described as follows: Inhibition of colony formation in human EC109 cells at 20 to 40 nM incubated for 7 days by crystal violet staining based analysis. Format: functional, cell-based. The note with it: dose 20-40 nM, time 7.0 day.
For experiment [6], the system named is ECa-109 cell line. Kind of experiment: Induction of apoptosis in human EC109 cells measured after 48 hrs by annexin V-FITC and PI staining based flow cytometry analysis. The experiment is classed as functional, cell-based. As to conditions: dose 20-40 nM.
For experiment [7], the system named is KYSE-30. The experiment is described as follows: Induction of apoptosis in human KYSE-30 cells assessed as increase in total number of apoptotic cells at 40 nM measured after 48 hrs by annexin V-FITC and PI staining based flow cytometry analysis (reference value: 13.77%). The experiment is classed as functional.
Experiment [8] concerns ECa-109 cell line. The experiment is described as follows: Induction of cell cycle arrest in human EC109 cells assessed as downregulation of Wee1 phosphorylation level at 40 to 60 nM measured after 48 hrs by Western blot analysis. The experiment is classed as functional, cell-based. The note with it: dose 40-60 nM. (In general: In western blotting, separated proteins are transferred to a membrane and probed.)

For experiment [9], the system named is KYSE-30. Kind of experiment: Induction of cell cycle arrest in human KYSE-30 cells assessed as downregulation of CDC25C level at 40 to 60 nM measured after 48 hrs by Western blot analysis. The experiment is classed as functional, cell-based. The note with it: dose 40-60 nM.
In experiment [10] the target is T1, Tubulin (Homo sapiens). The experiment is described as follows: Inhibition of tubulin polymerization in human EC109 cells assessed as appearance of multinucleation at 20 to 40 nM incubated for 6 hrs by immunofluorescence staining based fluorescence microscopic analysis. The experiment is classed as cell-based. As to conditions: dose 20-40 nM.
Experiment [11] concerns ECa-109 cell line. The experiment is described as follows: Induction of cell cycle arrest in human EC109 cells assessed as downregulation of CDC25C level at 40 to 60 nM measured after 48 hrs by Western blot analysis. The experiment is classed as functional, cell-based. As to conditions: dose 40-60 nM.
The test system of experiment [12] is KYSE-30. The experiment is described as follows: Induction of cell cycle arrest in human KYSE-30 cells assessed as downregulation of CDK1 level at 40 to 60 nM measured after 48 hrs by Western blot analysis. Format: functional, cell-based. The note with it: dose 40-60 nM.
Experiment [13] concerns ECa-109 cell line. Kind of experiment: Antiproliferative activity against human EC109 cells assessed as reduction in cell viability measured after 48 hrs by CCK-8 method. The experiment is classed as functional, cell-based. As to conditions: dose 10-70 nM.
The test system of experiment [14] is ECa-109 cell line. Kind of experiment: Induction of apoptosis in human EC109 cells assessed as increase in Noxa expression level at 40 to 60 nM by flow cytometry analysis. The experiment is classed as functional, cell-based. As to conditions: dose 40-60 nM.
In experiment [15] the test system is KYSE-30. The experiment is described as follows: Induction of cell cycle arrest in human KYSE-30 cells assessed as downregulation of Wee1 phosphorylation level at 40 to 60 nM measured after 48 hrs by Western blot analysis. The note with it: dose 40-60 nM. The experiment is classed as functional, cell-based.
In experiment [16] the test system is ECa-109. The experiment is described as follows: Downregulation of YAP level in human EC109 cells incubated for 48 hrs. The experiment is classed as functional, cell-based. As to conditions: dose 40-80 nM.
Experiment [17] relates to ECa-109 cell line. The experiment is described as follows: Induction of apoptosis in human EC109 cells assessed as increase in cleaved caspase 3 level at 40 to 100 nM measured after 48 hrs by Western blot analysis. Format: functional, cell-based. The note with it: dose 40-100 nM.
Experiment [18] deals with ECa-109 cell line. The experiment is described as follows: Induction of apoptosis in human EC109 cells assessed as downregulation of XIAP level at 40 to 60 nM by flow cytometry analysis. Format: functional, cell-based. As to conditions: dose 40-60 nM.
In experiment [19] the test system is KYSE-30. Kind of experiment: Induction of apoptosis in human KYSE-30 cells assessed as increase in caspase 3 activity at 40 to 100 nM measured after 48 hrs by Western blot analysis. As to conditions: dose 40-100 nM. Format: functional, cell-based.
Experiment [20] concerns ECa-109. The experiment is described as follows: Effect on MST1 level in human EC109 cells at 40 to 60 nM measured after 48 hrs. Format: functional, cell-based. The note with it: dose 40-60 nM.
Experiment [21] concerns ECa-109 cell line. Kind of experiment: Induction of apoptosis in human EC109 cells assessed as downregulation of bcl-2 level at 40 to 60 nM by flow cytometry analysis. The note with it: dose 40-60 nM. Format: functional, cell-based.
The subject of experiment [22] is KYSE-30. Kind of experiment: Induction of apoptosis in human KYSE-30 cells assessed as increase in cleaved caspase 3 level at 40 to 100 nM measured after 48 hrs by Western blot analysis. Format: functional, cell-based. The note with it: dose 40-100 nM.

Each structure is given as a SMILES string. Activity calls are given as the source filed them. The rule behind the calls is not given here.

The term IC50 denotes the concentration needed to halve the response being measured. Turning to `COc1ccc(CN(C(=O)Cn2cc(CSc3nc4ccccc4s3)nn2)c2cc(OC)c(OC)c(OC)c2)cc1O`, the result in the experiment with ECa-109 cell line [1] and in the experiment with ECa-109 [20] was inactive. Further, the 50% inhibitory concentration (IC50) in the experiment with HCT-116 was determined as 62 nM. Besides, the inhibition result at Tubulin (Homo sapiens) [2], with ECa-109 cell line [5] and on Tubulin (Homo sapiens) [10] was “Active” throughout. Also, the outcome in the experiment with KYSE-30 [3], in the experiment with ECa-109 cell line [8], in the experiment on KYSE-30 [9], in the experiment on ECa-109 cell line [11], in the experiment on KYSE-30 [12] and in the experiment on ECa-109 cell line [14] was Active. Further, the result in the experiment with KYSE-30 [15], with ECa-109 cell line [17], with ECa-109 cell line [18], in the experiment on KYSE-30 [19], in the experiment with ECa-109 cell line [21] and with KYSE-30 [22] was Active. In addition, the Activity with ECa-109 cell line [4] is over 90%; in the experiment on ECa-109 cell line [6], “Dose-Dependent Effect”; in the experiment with KYSE-30 [7], 28.56%; in the experiment on ECa-109 cell line [13], “Dose-Dependent Effect”; in the experiment on ECa-109 [16], “Dose-Dependent Effect”.
